# Data taken from patent US5120859A, “Chimeric amino acid analogues” (dated 1992).
# Starred links: 1 amine or outer side, 2 acyl side, 3 side chain; linkers in the order of their positions; H or OH if unused. Non-standard residues stand in square brackets, D forms with d. Residues, ends and D or L forms follow the SMILES beside them. Pro(trans-4-guanidino) = N=C(N)N[C@H]1CN[C@H](C(=O)O)C1; Pro(cis-4-guanidino) = NC(N)=N[C@@H]1CN[C@H](C(=O)O)C1; X4 = N=C(N)NC[C@@H]1C[C@@H](C(=O)[*:2])N([*:1])C1; X1 = N=C(N)NC[C@@H]1C[C@H](C(=O)[*:2])N([*:1])C1; X2 = N=C(N)NC[C@H]1C[C@@H](C(=O)[*:2])N([*:1])C1; X5 = N=C(N)NC[C@H]1C[C@H](C(=O)[*:2])N([*:1])C1; X3 = N=C(N)N[C@H]1C[C@H](C(=O)[*:2])N([*:1])C1
# Biological target: IIbIIIa receptor (Homo sapiens, UniProt P05106+P08514)
# Sequence (P08514 32-1039): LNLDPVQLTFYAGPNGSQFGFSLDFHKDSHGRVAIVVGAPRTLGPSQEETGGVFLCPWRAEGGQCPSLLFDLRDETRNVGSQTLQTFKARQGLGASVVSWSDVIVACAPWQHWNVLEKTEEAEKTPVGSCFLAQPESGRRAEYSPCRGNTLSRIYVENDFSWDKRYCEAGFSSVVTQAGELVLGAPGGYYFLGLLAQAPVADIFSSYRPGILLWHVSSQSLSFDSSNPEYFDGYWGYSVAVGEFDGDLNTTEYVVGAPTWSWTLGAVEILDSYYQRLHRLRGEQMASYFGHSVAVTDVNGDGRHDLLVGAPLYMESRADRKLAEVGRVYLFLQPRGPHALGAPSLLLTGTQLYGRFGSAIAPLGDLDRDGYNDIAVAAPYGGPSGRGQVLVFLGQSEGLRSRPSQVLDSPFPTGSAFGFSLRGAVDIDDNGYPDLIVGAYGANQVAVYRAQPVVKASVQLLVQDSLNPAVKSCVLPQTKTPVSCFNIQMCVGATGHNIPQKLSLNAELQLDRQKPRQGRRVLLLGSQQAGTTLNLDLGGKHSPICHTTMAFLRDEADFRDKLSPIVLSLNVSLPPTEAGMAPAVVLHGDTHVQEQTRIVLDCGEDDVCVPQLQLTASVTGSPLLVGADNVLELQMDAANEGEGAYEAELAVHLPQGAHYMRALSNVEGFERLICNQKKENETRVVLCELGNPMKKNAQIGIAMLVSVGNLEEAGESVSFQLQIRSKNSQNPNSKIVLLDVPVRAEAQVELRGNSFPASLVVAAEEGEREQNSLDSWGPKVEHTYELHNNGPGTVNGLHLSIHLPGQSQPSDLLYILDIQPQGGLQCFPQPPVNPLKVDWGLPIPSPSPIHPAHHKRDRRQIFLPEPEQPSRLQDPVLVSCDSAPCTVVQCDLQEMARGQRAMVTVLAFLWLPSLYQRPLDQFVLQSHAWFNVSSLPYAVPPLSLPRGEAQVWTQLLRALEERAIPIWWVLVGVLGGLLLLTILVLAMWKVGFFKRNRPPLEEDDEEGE
# Sequence (P05106 27-788): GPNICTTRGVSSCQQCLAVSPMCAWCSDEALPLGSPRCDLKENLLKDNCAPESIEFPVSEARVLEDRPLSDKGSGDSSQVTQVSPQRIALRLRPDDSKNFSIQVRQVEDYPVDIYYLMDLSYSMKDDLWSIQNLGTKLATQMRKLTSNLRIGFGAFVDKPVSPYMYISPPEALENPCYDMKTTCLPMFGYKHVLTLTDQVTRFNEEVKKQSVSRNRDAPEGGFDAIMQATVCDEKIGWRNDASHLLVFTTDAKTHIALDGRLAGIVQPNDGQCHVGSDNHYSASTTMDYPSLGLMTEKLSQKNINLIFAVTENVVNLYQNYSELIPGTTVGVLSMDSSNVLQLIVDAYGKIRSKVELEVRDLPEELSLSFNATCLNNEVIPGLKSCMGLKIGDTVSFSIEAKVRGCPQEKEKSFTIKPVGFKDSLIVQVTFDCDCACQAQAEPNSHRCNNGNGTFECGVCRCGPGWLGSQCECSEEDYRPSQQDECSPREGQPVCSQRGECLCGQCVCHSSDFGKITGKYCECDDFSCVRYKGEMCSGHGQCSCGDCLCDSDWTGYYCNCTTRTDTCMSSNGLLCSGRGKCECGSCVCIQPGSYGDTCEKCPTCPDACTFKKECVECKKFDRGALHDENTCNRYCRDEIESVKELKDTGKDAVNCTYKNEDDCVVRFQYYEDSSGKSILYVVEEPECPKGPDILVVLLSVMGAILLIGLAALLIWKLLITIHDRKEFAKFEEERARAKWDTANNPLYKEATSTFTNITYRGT
# Experiment: biochemical
# Conditions: read-out: IC50 (Ratio to GRGDV IC50)
# Procedure: Microtier plates are coated with fibrinogen (10 ug/ml) and then blocked with TACTS buffer containing 0.5% BSA. (TACTS buffer contains 20 mM Tris.HCl, pH 7.5, 0.02% sodium azide, 2 mM calcium chloride, 0.05% Tween 20, 150 mM sodium chloride.) The plate is washed with phosphate buffered saline containing 0.01% Tween 20 and a dilution of the sample to be determined added, followed by addition of solubilized IIbIIIa receptor (40 ug/ml) in TACTS, 0.5% BSA. After incubation, the plate is washed and murine monoclonal anti-platelet antibody AP3 (1 ug/ml) added. After another wash, […] IgG conjugated to horseradish peroxidase are added. A final wash is performed and developing reagent buffer (10 mg o-phenylenediamine dihydrochloride, 0.0212% hydrogen peroxide, 0.22 mM citrate, 50 mM phosphate, pH 5.0) is added and then incubated until color developed. The reaction is stopped with 1N sulfuric acid and the absorbance at 492 nm is recorded. […] The ratio represents the ratio of the IC50 of the test compound to the IC50 of the internal standard (GRGDV).
row,Structure (SMILES),IC50
1,CC(C)[C@H](NC(=O)[C@H](CC(=O)O)NC(=O)CNC(=O)[C@@H]1C[C@H](NC(=N)N)CN1)C(=O)O [##STR59##] (H-[Pro(cis-4-guanidino)]GDV-OH),0.155 µM
2,CC(C)[C@H](NC(=O)[C@H](CC(=O)O)NC(=O)CNC(=O)[C@@H]1C[C@H](CNC(=N)N)CN1)C(=O)O [##STR52##],0.01 µM
3,CC(C)[C@H](NC(=O)[C@H](CC(=O)O)NC(=O)CNC(=O)[C@H]1C[C@H](CNC(=N)N)CN1)C(=O)O [##STR51##],0.0064 µM
4,CC(C)[C@H](NC(=O)[C@H](CC(=O)O)NC(=O)CNC(=O)[C@H]1C[C@H](NC(=N)N)CN1C(=O)CN)C(=O)O [##STR54##] (H-G[X3]GDV-OH),0.226 µM
5,CC(C)[C@H](NC(=O)[C@H](CC(=O)O)NC(=O)CNC(=O)[C@@H]1C[C@@H](NC(=N)N)CN1C(=O)CN)C(=O)O [##STR60##] (H-G[Pro(trans-4-guanidino)]GDV-OH),1.7 µM

# Continued, values first:
row,IC50,Structure (SMILES)
1,0.03 µM,CC(C)[C@H](NC(=O)[C@H](CC(=O)O)NC(=O)CNC(=O)[C@@H]1C[C@@H](CNC(=N)N)CN1C(=O)CN)C(=O)O [##STR53##] (H-G[X4]GDV-OH)
2,0.025 µM,CC(C)[C@H](NC(=O)[C@H](CC(=O)O)NC(=O)CNC(=O)[C@H]1C[C@@H](CNC(=N)N)CN1C(=O)CN)C(=O)O [##STR57##] (H-G[X1]GDV-OH)
3,0.565 µM,CC(C)[C@H](NC(=O)[C@H](CC(=O)O)NC(=O)CNC(=O)[C@@H]1C[C@H](NC(=N)N)CN1C(=O)CN)C(=O)O [##STR55##] (H-G[Pro(cis-4-guanidino)]GDV-OH)
4,0.101 µM,CC(C)[C@H](NC(=O)[C@H](CC(=O)O)NC(=O)CNC(=O)[C@@H]1C[C@H](CNC(=N)N)CN1C(=O)CN)C(=O)O [##STR58##] (H-G[X2]GDV-OH)
5,0.037 µM,CC(C)[C@H](NC(=O)[C@H](CC(=O)O)NC(=O)CNC(=O)[C@H]1C[C@H](CNC(=N)N)CN1C(=O)CN)C(=O)O [##STR56##] (H-G[X5]GDV-OH)
